{
  "source": "patent EP3418270A1",
  "about": "“NOVEL BIPHENYLSULFOXIMINES AS ALLOSTERIC MODULATORS OF THE DOPAMINE D1 RECEPTOR” (Universidad Complutense De Madrid, priority 2017, dated 2018)",
  "key": {"human D1 receptors": {"target": "T1, human D1 receptors (Homo sapiens, UniProt P21728)", "T1 construct": "endogenously expressed human D1 receptors in SK-N-MC cell line; host or cells: SK-N-MC human neuroblastoma cells", "T1 sequence (P21728 whole entry)": "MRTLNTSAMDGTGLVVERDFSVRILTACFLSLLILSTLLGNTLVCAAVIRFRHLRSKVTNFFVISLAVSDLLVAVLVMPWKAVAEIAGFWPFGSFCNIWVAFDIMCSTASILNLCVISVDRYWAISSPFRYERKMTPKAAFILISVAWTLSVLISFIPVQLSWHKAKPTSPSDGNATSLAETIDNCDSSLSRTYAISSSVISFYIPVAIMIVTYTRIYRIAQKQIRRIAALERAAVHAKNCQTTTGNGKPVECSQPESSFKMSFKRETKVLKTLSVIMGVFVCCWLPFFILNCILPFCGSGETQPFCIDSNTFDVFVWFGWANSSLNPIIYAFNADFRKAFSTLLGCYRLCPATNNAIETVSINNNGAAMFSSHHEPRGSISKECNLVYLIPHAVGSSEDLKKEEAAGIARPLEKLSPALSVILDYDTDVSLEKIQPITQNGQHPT", "experiment": "Allosteric modulation of human dopamine D1 receptors: dopamine-induced cAMP production (HTRF) in SK-N-MC cells", "format": "cell-based", "conditions": "for Potentiation (%) at 10 µM / Potentiation (%) at 5 µM: potentiation of dopamine Emax; for Potentiation (%) at 10 µM: compound at 10 µM; for Potentiation (%) at 5 µM: compound at 5 µM (values marked *)", "procedure": "Functional studies at human D1 receptors were carried out in endogenously expressed human D1 receptors in SK-N-MC cell line (ATCC). SK-N-MC cells were thawed and seeded into a black 96-well plate (1×10^4 cells/well) in Optimem containing 500 µM IBMX.\n(§1) Cells were treated with the test compounds for 15 min at 25°C and dopamine was added to the corresponding wells and incubated for additional 15 min at 25°C. Treated cells were lysed and the cAMP concentration was measured by homogeneous time-resolved fluorescence energy transfer (HTRF; Cisbio Kit). HTRF was read in a Tecan M1000 Genius Pro reader (λexcitation = 320 nm, λemission = 620 nm and 665 nm, 30 flashes).\n(§2) Data were normalized to dopamine maximum effect and fitted to a 4-parameter logistic equation Prism v2.1 (GraphPad Inc).\nIf the observed effect is dose-dependent, compounds were then tested in the cAMP assay, this time maintaining a fixed concentration of dopamine (=EC70) while increasing the concentration of the compound, and the potentiation of the dopamine effect was measured."}, "human D5 receptors": {"target": "human D5 receptors (Homo sapiens, UniProt P21918)", "sequence (P21918 whole entry)": "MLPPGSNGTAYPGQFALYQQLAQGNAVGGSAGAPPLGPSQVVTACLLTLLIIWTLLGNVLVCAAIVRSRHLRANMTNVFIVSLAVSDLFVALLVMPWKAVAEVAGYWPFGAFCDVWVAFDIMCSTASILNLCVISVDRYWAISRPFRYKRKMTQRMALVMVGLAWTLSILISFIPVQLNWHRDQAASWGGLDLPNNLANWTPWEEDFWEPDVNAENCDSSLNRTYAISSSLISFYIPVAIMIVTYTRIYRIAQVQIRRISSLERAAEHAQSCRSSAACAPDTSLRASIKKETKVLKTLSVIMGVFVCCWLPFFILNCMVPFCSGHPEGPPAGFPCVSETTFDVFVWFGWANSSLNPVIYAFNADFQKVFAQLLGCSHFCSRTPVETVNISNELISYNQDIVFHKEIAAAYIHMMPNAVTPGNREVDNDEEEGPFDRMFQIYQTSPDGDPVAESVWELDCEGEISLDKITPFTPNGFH", "experiment": "Functional assay at human D5 receptors: cAMP Hunter express DRD5 assay", "format": "cell-based", "conditions": "cAMP formation, Figure 6", "procedure": "Functional studies at human D5 receptors receptors were carried by employing a cAMP Hunter express DRD5 assay kit from DiscoverX. Cells were plated maintained for 24 h at 37°C in a 5% CO2 atmosphere in cell plating reagent provided in the kit.\n(§3) Cells were treated with the test compounds for 15 min at 37°C and dopamine was added to the corresponding wells and incubated for additional 30 min at 37°C. Cells were then treated with the cAMP detection solution provided with the kit for 1 h and then cAMP solution A was added to each well and incubated for 3 h at RT. cAMP formation was measured by luminescence detection (integration time=500 ms) in a Tecan M1000 Genius Pro reader.\nas §2"}, "human D3 receptors": {"target": "human D3 receptors (Homo sapiens, UniProt P35462)", "sequence (P35462 whole entry)": "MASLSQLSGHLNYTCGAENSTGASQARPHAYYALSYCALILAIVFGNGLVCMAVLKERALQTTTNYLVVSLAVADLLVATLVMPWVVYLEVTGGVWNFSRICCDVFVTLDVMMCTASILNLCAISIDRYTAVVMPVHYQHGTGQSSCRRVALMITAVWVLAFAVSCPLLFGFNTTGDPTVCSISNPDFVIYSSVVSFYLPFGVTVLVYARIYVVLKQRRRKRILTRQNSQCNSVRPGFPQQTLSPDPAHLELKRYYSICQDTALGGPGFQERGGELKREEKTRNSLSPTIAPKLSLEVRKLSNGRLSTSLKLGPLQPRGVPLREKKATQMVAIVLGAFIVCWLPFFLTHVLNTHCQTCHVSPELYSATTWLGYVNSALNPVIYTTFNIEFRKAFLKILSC", "experiment": "Functional assay at human D3 receptors: PatHunter Beta-arrestin express GPCR assay", "format": "cell-based", "conditions": "beta-arrestin translocation, Figure 4", "procedure": "(§4) Functional studies at both human D3 and D4 receptors receptors were carried by employing a PatHunter Beta-arrestin express GPCR assay kit from DiscoverX. Cells were plated maintained for 48 h at 37°C in a 5% CO2 atmosphere in cell plating reagen t provided in the kit.\nas §3, with “30” for “15”, “90” for “30”, “working” for “cAMP”, “beta-arrestin translocation” for “then cAMP solution A was added to each well and incubated for 3 h at RT. cAMP formation”\nas §2"}, "human D4 receptors": {"target": "T2, human D4 receptors (Homo sapiens, UniProt P21917)", "T2 sequence (P21917 1-419)": "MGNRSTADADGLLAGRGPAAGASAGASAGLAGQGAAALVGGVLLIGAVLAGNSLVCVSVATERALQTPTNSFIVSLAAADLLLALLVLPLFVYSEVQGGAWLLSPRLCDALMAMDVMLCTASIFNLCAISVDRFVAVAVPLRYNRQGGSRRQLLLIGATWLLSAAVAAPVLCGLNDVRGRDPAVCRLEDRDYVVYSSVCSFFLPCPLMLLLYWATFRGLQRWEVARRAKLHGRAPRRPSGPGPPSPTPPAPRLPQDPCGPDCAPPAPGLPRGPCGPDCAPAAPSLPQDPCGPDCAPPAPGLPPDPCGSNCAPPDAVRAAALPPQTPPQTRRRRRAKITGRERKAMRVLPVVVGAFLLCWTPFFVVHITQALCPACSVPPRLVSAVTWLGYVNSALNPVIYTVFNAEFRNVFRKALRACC", "experiment": "Functional assay at human D4 receptors: PatHunter Beta-arrestin express GPCR assay", "format": "cell-based", "conditions": "beta-arrestin translocation, Figure 5", "procedure": "as §4\nas §3, with “30” for “15”, “90” for “30”, “working” for “cAMP”, “beta-arrestin translocation” for “then cAMP solution A was added to each well and incubated for 3 h at RT. cAMP formation”\nas §2"}, "[1]": {"target": "T3, human dopamine D1 receptor (Homo sapiens, UniProt P21728)", "T3 sequence (P21728 whole entry)": "as the sequence (P21728 whole entry) above", "experiment": "Agonist effect at human dopamine D1 receptors: cAMP (HTRF) in SK-N-MC cells without dopamine", "format": "cell-based", "design": "endogenously expressed human D1 receptors in SK-N-MC cell line; host or cells: SK-N-MC human neuroblastoma cells", "conditions": "in the absence of dopamine, cAMP (Figure 2)", "procedure": "as §1, with “SK-N-MC cells seeded into a black 96-well plate (1×10^4 cells/well) in Optimem containing 500 µM IBMX” for “Cells”, “for” for “for 15 min at 25°C and dopamine was added to the corresponding wells and incubated for additional”\nas §2"}, "[2]": {"target": "T3, human dopamine D1 receptor", "experiment": "Radioligand binding assay at human D1 receptors ([3H]SCH23390 displacement, membranes)", "design": "purchased Perkin Elmer", "conditions": "0.7 nM [3H]SCH23390, orthosteric site", "procedure": "Assays were carried out by using plasma membranes (12 µg/well) expressing human dopamine D1 receptor (Perkin Elmer). Membranes were incubated in a Multiscreen FC 96-well plate (Millipore) with 0.7 nM [^3H]SCH23390 (Perkin Elmer) and increasing amounts of the test compound in assay buffer (50 mM Tris-HCl, 5 mM MgCl2; pH=7.4) for 1 h at 27°C. After this time the well content was filtered through a Millipore manifold and membranes washed 4 times with assay buffer. Plate was dried and radioactivity was measured in a Microbeta Trilux liquid scintillation reader (Perkin-Elmer). Non-specific binding was determined in the presence of 1 µM (+)-butaclamol.\nData were normalized to percentage of specific binding and fitted to a 4-parameter logistic equation with Prism v2.1 (GraphPad Inc)."}, "[3]": {"target": "T4, recombinant human D2 receptors (Homo sapiens, UniProt P14416)", "T4 construct": "expressed in transfected cells; host or cells: CHO cell line, stably transfected in-house", "T4 sequence (P14416 whole entry)": "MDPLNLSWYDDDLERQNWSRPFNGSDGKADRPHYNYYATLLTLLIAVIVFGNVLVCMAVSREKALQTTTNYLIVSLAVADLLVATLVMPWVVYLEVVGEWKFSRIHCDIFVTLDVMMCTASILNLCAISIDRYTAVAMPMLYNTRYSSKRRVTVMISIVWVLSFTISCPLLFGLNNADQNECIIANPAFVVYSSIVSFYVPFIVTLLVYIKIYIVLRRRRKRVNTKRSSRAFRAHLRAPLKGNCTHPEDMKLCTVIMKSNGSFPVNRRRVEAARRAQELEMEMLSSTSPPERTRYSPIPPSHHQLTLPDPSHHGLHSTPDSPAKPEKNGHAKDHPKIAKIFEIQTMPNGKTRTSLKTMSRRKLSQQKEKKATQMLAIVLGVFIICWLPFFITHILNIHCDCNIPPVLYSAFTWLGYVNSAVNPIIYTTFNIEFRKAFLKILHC", "experiment": "Functional assay at human D2 receptors: cAMP (HTRF), forskolin-stimulated CHO cells", "format": "cell-based", "conditions": "Figure 3", "procedure": "Functional studies at D2 receptors were carried out in recombinant human D2 receptors stably transfected in-house in a CHO cell line. Cells were thawed and seeded into a 96-well plate (5×10^3 cells/well) in Optimem containing 500 µM IBMX.\nas §1, with “for 5” for “for 15”, “at 37°C” for “at 25°C”, “additional 10” for “additional 15”, “at 37°C. After this time cells were treated with 10 µM forskolin for 5 min at 37°C.” for “at 25°C.”\nas §2"}},
  "data": [
    {"smiles": "CS(=N)(=O)c1ccc(-c2ccccc2OC(F)(F)F)cc1Cl", "note": "(stereo not drawn) [If, 3'-Chloro-4'-(S-methylsulfonimidoyl)-2-(trifluoromethoxy)biphenyl]", "values": [
      {"measurement": "Potentiation (%) at 10 µM", "setting": "human D1 receptors", "result": 30, "unit": "%"}
    ]},
    {"smiles": "CN=S(C)(=O)c1ccc(-c2ccccc2OC(F)F)cc1", "note": "(stereo not drawn) [Ib, 2-(Difluoromethoxy)-4'-(N,S-dimethylsulfonimidoyl)biphenyl]", "values": [
      {"measurement": "Potentiation (%) at 10 µM", "setting": "human D1 receptors", "result": 64, "unit": "%"}
    ]},
    {"smiles": "CCS(=N)(=O)c1ccc(-c2ccccc2OC(F)F)cc1", "note": "(stereo not drawn) [Ic, 2-(Difluoromethoxy)-4'-(S-ethylsulfonimidoyl)biphenyl]", "values": [
      {"measurement": "Potentiation (%) at 10 µM", "setting": "human D1 receptors", "result": 39, "unit": "%"}
    ]},
    {"smiles": "CCS(=N)(=O)c1ccc(-c2ccccc2OCF)cc1", "note": "(stereo not drawn) [Ii, 2-(Fluoromethoxy)-4'-(S-ethylsulfonimidoyl)biphenyl]", "values": [
      {"measurement": "Potentiation (%) at 10 µM", "setting": "human D1 receptors", "result": 54, "unit": "%"}
    ]},
    {"smiles": "C[S@@](=N)(=O)c1ccc(-c2ccccc2OCF)cc1", "note": "[(R)-Ik, (R)-2-(Fluoromethoxy)-4'-(S-methylsulfonimidoyl)biphenyl]", "values": [
      {"measurement": "Potentiation (%) at 5 µM", "setting": "human D1 receptors", "result": 63, "unit": "%"},
      {"measurement": "functional subtype selectivity against D5 receptor", "setting": "human D5 receptors", "result": "functional subtype selectivity"},
      {"measurement": "functional subtype selectivity against D3 receptor", "setting": "human D3 receptors", "result": "functional subtype selectivity"},
      {"measurement": "functional subtype selectivity against D4 receptor", "setting": "human D4 receptors", "result": "functional subtype selectivity"},
      {"measurement": "intrinsic agonist activity", "setting": "[1]", "result": "no potentiation"},
      {"measurement": "inhibition at 10 µM", "setting": "[2]", "result": 12, "unit": "%"},
      {"measurement": "functional subtype selectivity against dopamine D2 receptor", "setting": "[3]", "result": "functional subtype selectivity"}
    ]},
    {"smiles": "CS(=N)(=O)c1ccc(-c2ccccc2OC(F)F)cc1", "note": "(stereo not drawn) [Ia, 2-(Difluoromethoxy)-4'-(S-methylsulfonimidoyl)biphenyl]", "values": [
      {"measurement": "Potentiation (%) at 10 µM", "setting": "human D1 receptors", "result": 27, "unit": "%"}
    ]},
    {"smiles": "CS(=N)(=O)c1ccc(-c2ccccc2OC(F)F)cc1Cl", "note": "(stereo not drawn) [Id, 3'-Chloro-2-(difluoromethoxy)-4'-(S-methylsulfonimidoyl)biphenyl]", "values": [
      {"measurement": "Potentiation (%) at 10 µM", "setting": "human D1 receptors", "result": 25, "unit": "%"}
    ]},
    {"smiles": "CN=S(C)(=O)c1ccc(-c2ccccc2OCF)cc1", "note": "(stereo not drawn) [Ih, 4'-(N,S-Dimethylsulfonimidoyl)-2-(fluoromethoxy)biphenyl]", "values": [
      {"measurement": "Potentiation (%) at 10 µM", "setting": "human D1 receptors", "result": 30, "unit": "%"}
    ]},
    {"smiles": "CS(=N)(=O)c1ccc(-c2ccccc2OCF)cc1", "note": "(racemic) [Ik, 2-(Fluoromethoxy)-4'-(S-methylsulfonimidoyl)biphenyl]", "values": [
      {"measurement": "EC50", "setting": "human D1 receptors; potency in the presence of dopamine (fixed concentration = EC70)", "result": 60, "unit": "nM"},
      {"measurement": "Potentiation (%) at 5 µM", "setting": "human D1 receptors", "result": 35, "unit": "%"},
      {"measurement": "Potentiation (%) at 10 µM", "setting": "human D1 receptors", "result": 55, "unit": "%"},
      {"measurement": "functional subtype selectivity against D5 receptor", "setting": "human D5 receptors", "result": "functional subtype selectivity"},
      {"measurement": "functional subtype selectivity against D3 receptor", "setting": "human D3 receptors", "result": "functional subtype selectivity"},
      {"measurement": "functional subtype selectivity against D4 receptor", "setting": "human D4 receptors", "result": "functional subtype selectivity"},
      {"measurement": "intrinsic agonist activity", "setting": "[1]", "result": "no potentiation"},
      {"measurement": "inhibition at 10 µM", "setting": "[2]", "result": 36, "unit": "%"},
      {"measurement": "functional subtype selectivity against dopamine D2 receptor", "setting": "[3]", "result": "functional subtype selectivity"}
    ]},
    {"smiles": "CN=S(C)(=O)c1ccc(-c2ccccc2OCF)cc1Cl", "note": "(stereo not drawn) [Ij, 3'-Chloro-2-(fluoromethoxy)-4'-(N,S-dimethylsulfonimidoyl)biphenyl]", "values": [
      {"measurement": "Potentiation (%) at 10 µM", "setting": "human D1 receptors", "result": 35, "unit": "%"}
    ]},
    {"smiles": "C[S@](=N)(=O)c1ccc(-c2ccccc2OCF)cc1", "note": "[(S)-Ik, (S)-2-(Fluoromethoxy)-4'-(S-methylsulfonimidoyl)biphenyl]", "values": [
      {"measurement": "Potentiation (%) at 5 µM", "setting": "human D1 receptors", "result": 47, "unit": "%"},
      {"measurement": "functional subtype selectivity against D5 receptor", "setting": "human D5 receptors", "result": "functional subtype selectivity"},
      {"measurement": "functional subtype selectivity against D3 receptor", "setting": "human D3 receptors", "result": "functional subtype selectivity"},
      {"measurement": "functional subtype selectivity against D4 receptor", "setting": "human D4 receptors", "result": "functional subtype selectivity"},
      {"measurement": "intrinsic agonist activity", "setting": "[1]", "result": "no potentiation"},
      {"measurement": "inhibition at 10 µM", "setting": "[2]", "result": 6, "unit": "%"},
      {"measurement": "functional subtype selectivity against dopamine D2 receptor", "setting": "[3]", "result": "functional subtype selectivity"}
    ]},
    {"smiles": "CN=S(C)(=O)c1ccc(-c2ccccc2OC(F)F)cc1Cl", "note": "(stereo not drawn) [Ie, 3'-Chloro-2-(difluoromethoxy)-4'-(N,S-dimethylsulfonimidoyl)biphenyl]", "values": [
      {"measurement": "Potentiation (%) at 10 µM", "setting": "human D1 receptors", "result": 33, "unit": "%"}
    ]},
    {"smiles": "CN=S(C)(=O)c1ccc(-c2ccccc2OC(F)(F)F)cc1Cl", "note": "(stereo not drawn) [Ig, 3'-Chloro-2-(trifluoromethoxy)-4'-(N,S-dimethylsulfonimidoyl)biphenyl]", "values": [
      {"measurement": "Potentiation (%) at 10 µM", "setting": "human D1 receptors", "result": 27, "unit": "%"}
    ]}
  ]
}
